In patent US9969719B2, “Substituted 2-hydrogen-pyrazole derivative serving as anticancer drug” (CHIA TAI TIANQING PHARMACEUTICAL GROUP CO., LTD., priority 2015, dated 2018):
Where two headings read alike, the source gives them in different places.

Key:
[1] = test system: Caco-2 monolayer cells; assay: Caco-2 cell bi-directional permeability assessment
Experimental: (§6) The standard experimental conditions were as follows: • Test concentration: 2 μM (DMSO≤1%); • Number of replication: n=2; • Direction: bi-directional transportation, including two directions, i.e., A→B and B→A; • Incubation time: single time point, 2 hours; • Transport buffer: HBSS, pH 7.4; • Incubation conditions: 37° C., 5% CO2.
(§7) After the incubation, sample solutions taken from the dosing wells and the receiving wells were immediately mixed with a cold acetonitrile solution containing the internal standard. Concentrations of the test compounds in all samples (including the initial dosing solutions, the supernatants of the dosing wells and the receiving solutions) were determined by a LC/MS/MS method. The apparent permeability coefficients, the efflux ratios and other parameters were calculated.

[2] = Caco-2 cell bi-directional permeability assessment; conditions: human, Caco-2, pH 7.4
Experimental: as §6, §7

[3] = test system: MDA-MB-436 cells; assay: MDA-MB-436 cell proliferation (CellTiter-Glo); type: cell-based; conditions: Homo sapiens
Experimental: RPMI 1640 medium, fetal bovine serum, penicillin/streptomycin were purchased from Promega (Madison, Wis.). The MCF-7 cell line and the MDA-MB-436 cell line were purchased from the European Collection of Authenticated Cell Cultures (ECACC). EnVision® Multilabel Plate Reader (PerkinElmer) was used.
(§1) The compounds to be tested were diluted three times using Bravo to the tenth concentration, i.e., diluted from 10 μM to 0.508 nM. A duplicate well test was performed. The medium was added to the middle plate in an amount of 49 μL per well. The gradient dilutions of the compounds were transferred in an amount of 1 μL per well to the middle plate at the corresponding positions, and the mixture was mixed and transferred to the cell plate in an amount of 5 μL per well. The cell plate was incubated in a carbon dioxide incubator for 6 days. Promega CellTiter-Glo reagent was added to the cell plate in an amount of 25 μL per well. The cell plate was incubated at room temperature for 10 minutes to stabilize the luminescence signal. EnVision® Multilabel Plate Reader (PerkinElmer) was used for signal detection.
The IC50 values were obtained by curve fitting using four parameters (obtained from the 205 mode in XLFIT5, iDBS). Table 1 provides the inhibitory activities of the compounds of the invention against the proliferation of MCF-7 cells and MDA-MB-436 cells.

[4] = target: T1, CDK4/cyclin D1 (Homo sapiens, UniProt P11802); assay: CDK4/cyclin D1 Lance Ultra enzyme assay; type: biochemical; conditions: 350 μM ATP, 180 minutes
T1 construct: purchased Life Technologies
T1 sequence (P11802 whole entry): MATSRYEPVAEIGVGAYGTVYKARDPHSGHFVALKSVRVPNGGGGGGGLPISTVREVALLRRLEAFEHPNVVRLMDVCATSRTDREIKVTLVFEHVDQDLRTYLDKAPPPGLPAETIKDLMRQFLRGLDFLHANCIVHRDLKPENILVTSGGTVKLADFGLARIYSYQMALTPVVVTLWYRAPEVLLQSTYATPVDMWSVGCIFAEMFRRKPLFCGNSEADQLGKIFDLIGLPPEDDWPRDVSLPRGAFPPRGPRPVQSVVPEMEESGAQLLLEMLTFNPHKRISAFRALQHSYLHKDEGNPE
T1 sequence (P24385 whole entry partner): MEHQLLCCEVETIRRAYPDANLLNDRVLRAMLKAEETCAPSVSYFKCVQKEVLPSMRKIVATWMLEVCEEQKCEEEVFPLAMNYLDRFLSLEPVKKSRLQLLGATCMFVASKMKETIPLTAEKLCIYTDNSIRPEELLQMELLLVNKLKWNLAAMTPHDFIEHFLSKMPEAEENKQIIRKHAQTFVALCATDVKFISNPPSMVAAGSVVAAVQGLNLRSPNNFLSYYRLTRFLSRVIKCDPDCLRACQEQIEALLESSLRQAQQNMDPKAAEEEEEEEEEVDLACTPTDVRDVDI
Experimental: (§2) The experimental materials included CDK2/cyclin A, CDK4/cyclin D1, CDK6/cyclin D1 (Life Technologies); ULight-labeled polypeptide substrates, i.e., ULight-4E-BP1 and ULight-MBP (PerkinElmer); the europium-labeled antibody against anti-myelin basic protein and europium-labeled rabbit antibody (PerkinElmer); and Envision® Multilabel Plate Reader (PerkinElmer) used for signal detection.
(§3) The compounds to be tested were diluted three times so as to be at ten gradually varied concentrations.
(§4) The dilutions of the compounds were dissolved in enzyme buffer, respectively. The components of the buffer included 50 mM hydroxyethylpiperazine ethanesulfonic acid solution (pH 7.5), 1 mM ethylenediaminetetraacetic acid, 10 mM magnesium chloride, 0.01% Brij-35, and 2 mM dithiothreitol. After the reaction started, the OptiPlate 384-well plate was sealed with top heat-sealing film TopSeal-A and incubated at room temperature for 180 minutes. • The Enzyme Reaction System of CDK6/Cyclin D1
(§5) The stop buffer of the enzyme reaction was prepared by dissolving EDTA in a one-fold dilution of the assay buffer. The reaction was terminated at room temperature for 5 minutes. To each of the reaction systems of CDK2/cyclin A, CDK4/cyclin D1 and CDK6/cyclin D1 was added 5 μL assay mixture (provided with antibody the europium-labeled against anti-myelin basic protein and the europium-labeled rabbit antibody, respectively). They were incubated at room temperature for 60 minutes. The reaction signals were detected by the EnVision instrument according to the principle of time-resolved fluorescence resonance energy transfer.

[5] = target: T2, CDK2/cyclin A (Homo sapiens, UniProt P24941); assay: CDK2/cyclin A Lance Ultra enzyme assay; type: biochemical; conditions: 25 μM ATP, 60 minutes
T2 construct: purchased Life Technologies
Experimental: as §2, §3
as §4, with “The gradient dilutions of” for “The dilutions of”, “temperature for 60 minutes. •” for “temperature for 180 minutes. •”, “System of CDK4/Cyclin D1” for “System of CDK6/Cyclin D1”
as §5

[6] = target: T3, CDK6/cyclin D1 (Homo sapiens, UniProt Q00534); assay: CDK6/cyclin D1 Lance Ultra enzyme assay; type: biochemical; conditions: 250 μM ATP, 180 minutes
T3 construct: purchased Life Technologies
T3 sequence (Q00534 whole entry): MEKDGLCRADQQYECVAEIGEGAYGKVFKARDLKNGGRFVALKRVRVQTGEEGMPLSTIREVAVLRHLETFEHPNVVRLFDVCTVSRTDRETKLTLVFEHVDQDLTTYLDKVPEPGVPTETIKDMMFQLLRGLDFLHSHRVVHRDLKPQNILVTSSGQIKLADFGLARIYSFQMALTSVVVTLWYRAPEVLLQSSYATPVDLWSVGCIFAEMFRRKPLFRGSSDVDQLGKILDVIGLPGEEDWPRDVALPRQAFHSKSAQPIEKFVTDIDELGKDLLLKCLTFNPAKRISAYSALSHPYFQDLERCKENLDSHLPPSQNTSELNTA
T3 sequence (P24385 whole entry partner): as the sequence (P24385 whole entry partner) above
Experimental: as §2, §3
as §4, with “minutes.” for “minutes. • The Enzyme Reaction System of CDK6/Cyclin D1”
as §5

[7] = test system: human breast cancer cell line MCF-7; type: in vivo
Experimental: The in vivo pharmacodynamic study was carried out in human-based tumor cell line-derived xenografted (CDX) BALB/c nude mice, in which were subcutaneously implanted human breast cancer cell line MCF-7.
. All the cages, matts and water were disinfected before use. All the animals had free access to a standard certified commercial laboratory diet. A total of 100 mice were purchased from Shanghai BK Laboratory Animal Co., LTD for study. An estrogen tablet ([…], sustained release within 60 days) was subcutaneously implanted in the left next abdomen of each mice. After 3 days, the tumor cells (10×10^6 in 0.2 mL of phosphate buffer) were subcutaneously implanted in the right next abdomen of each mice for the tumor growth. The administration started when the average tumor volume reached about 150-200 mm^3. The test compounds were orally administered daily, the doses were shown as Table 5. The tumor volumes were measured with a two-dimensional caliper every three days, the volumes were expressed in cubic millimeters and calculated by the formula V=0.5a×b^2, wherein a and b were the major diameter and minor diameter of the tumor, respectively. Antitumor efficacy was determined by dividing an average increase of the tumor volumes of the animals treated with the compounds by an increase of the tumor volumes of the untreated animals.

[8] = test system: MCF-7 cells; assay: MCF-7 cell proliferation (CellTiter-Glo, 6 days); type: cell-based, human; conditions: for IC50: Homo sapiens, MCF7, proliferation, 6 days; for MCF-7/MDA-MB-436: ratio of the proliferation IC50 values
Experimental: EnVision® Multilabel Plate Reader (PerkinElmer) was used.
MCF-7 cells were inoculated in a black 384-well plate by adding 45 μL of the cell suspension (containing 200 of MCF-7 cells) to each of the wells. The plate was incubated overnight in a carbon dioxide incubator.
as §1, with “A” for “The compounds to be tested were diluted three times using Bravo to the tenth concentration, i.e., diluted from 10 μM to 0.508 nM. A”

[9] = Study of brain permeability after oral administration; type: in vivo, SD rats
Experimental: SD rats were used as the test animals.
Twelve healthy 7- to 9-week-old adult male SD rats were purchased from Shanghai Slack Laboratory Animal Co., Ltd. A proper amount of the test compound was weighed to prepare a 0.5% methylcellulose suspension at 1 mg/mL. The rats received a single oral dose of 10 mg/kg. 0.5 h, 2 h, 8 h, and 24 hours after the administration, 3 rats were respectively killed, and their whole blood and brain tissues were collected. The plasma was prepared by centrifuging the whole blood (3000 g, 15 minutes, 4° C.). The samples of brain homogenate were prepared by mixing the brain tissues with a mixture of methanol and a phosphate buffer (methanol:phosphate buffer=1:2) as homogenate at a ratio of 5:1. The drug concentration of each sample was determined by LC/MS/MS, and AUC was calculated to evaluate the exposure.

[10] = in vitro; conditions: human, Caco-2, pH 7.4
Experimental: as §6, §7

[11] = test system: Caco-2 monolayer cells
Experimental: as §6, §7

[12] = 10 mg/kg oral, time point 0.5 h
[13] = human, Caco-2, 2 h, 2 μM, pH 7.4

Compound: CC(C)c1c2cc(-c3nc(Nc4ccc(N5CCN(CCC#N)CC5)cn4)ncc3F)ccc2nn1C [Example 7, 3-[4-[6-[[5-fluoro-4-(3-isopropyl-2-methyl-2H-indazol-5-yl)pyrimidin-2-yl]amino]-3-pyridyl]piperazin-1-yl]propanenitrile]
- Classification Permeability ([1]; Caco-2): High
- Classification Substrates of efflux transporters ([1]; Caco-2): Unlikely
- permeability compared with the reference compounds ([1]; Caco-2, versus Palbociclib and LY2835219, in words): higher permeability
- Papp A→B at 2 h, 2 μM [2]: 6.55 ×10⁻⁶ cm/s
- Papp B→A at 2 h, 2 μM [2]: 3.38 ×10⁻⁶ cm/s
- efflux ratio at 2 h, 2 μM [2]: 0.52
- IC50 [3]: 1160 nM
- IC50 [4]: 1.82 nM
- IC50 [5]: 12 nM
- IC50 [6]: 4.52 nM
- Tomor volumes ([7]; 50.0 mg/kg orally daily, 0 day): 187 mm^3
- Tomor volumes ([7]; 50.0 mg/kg orally daily, 7th day): 271 mm^3
- Tomor volumes ([7]; 50.0 mg/kg orally daily, 14th day): 318 mm^3
- Tomor volumes ([7]; 50.0 mg/kg orally daily, 21st day): 350 mm^3
- antitumor activities in the CDX model of MCF-7 breast cancer ([7]; in words): significant antitumor activities
- IC50 [8]: 37.2 nM
- MCF-7/MDA-MB-436 [8]: 31.1
- selectivity in inhibiting the proliferation of estrogen receptor positive breast cancer cells (MCF-7/MDA-MB-436) ([8]; versus LY2835219, in words): higher selectivity
- inhibitory activities against the proliferation of MCF-7 cells compared with the reference compounds ([8]; versus Palbociclib and LY2835219, in words): higher inhibitory activities
- exposure in brain after 8 hours ([9]; 10 mg/kg oral, in words): significantly decreased
- Exposure in brain [9, 12]: 1564 nmol/kg
- Exposure in brain ([9]; 10 mg/kg oral, time point 2 h): 2922 nmol/kg
- Exposure in brain ([9]; 10 mg/kg oral, time point 8 h): 307 nmol/kg
- exposure in brain tissue compared with the reference compounds ([9]; rat, versus Palbociclib and LY2835219, in words, b797: 0.5 hour and 2 hour): higher exposure

Compound: CC(=O)c1c(C)c2cnc(Nc3ccc(N4CCNCC4)cn3)nc2n(C2CCCC2)c1=O [Palbociclib, reference compound]
- IC50 [3]: 9840 nM
- Papp A→B at 2 h, 2 μM [10]: 0.85 ×10⁻⁶ cm/s
- Papp B→A at 2 h, 2 μM [10]: 16.5 ×10⁻⁶ cm/s
- Tomor volumes ([7]; 45.0 mg/kg orally daily, 0 day): 187 mm^3
- Tomor volumes ([7]; 45.0 mg/kg orally daily, 7th day): 264 mm^3
- Tomor volumes ([7]; 45.0 mg/kg orally daily, 14th day): 387 mm^3
- Tomor volumes ([7]; 45.0 mg/kg orally daily, 21st day): 633 mm^3
- tolerability of high doses in the animals ([7]; mouse, in vivo): intolerable
- Classification Permeability ([11]; Caco-2): Medium
- Average apparent permeability coefficient A to B [11, 13]: 9.18 10^−6 cm/s
- Average apparent permeability coefficient B to A [11, 13]: 7.51 10^−6 cm/s
- IC50 [8]: 87 nM
- MCF-7/MDA-MB-436 [8]: 113
- Exposure in brain [9, 12]: 80 nmol/kg
- Exposure in brain ([9]; 10 mg/kg oral, time point 2 h): 329 nmol/kg
- Exposure in brain ([9]; 10 mg/kg oral, time point 8 h): 184 nmol/kg
